Consider 2 compounds from patent US12551468B2, “Pharmaceutical composition for oral administration, for treatment of liver cancer” (ETNOVA Therapeutics Corp., priority 2019, dated 2026).

One data set concerns Human liver cancer cells. The data set is described as follows: Comparative test of anticancer effect according to administration route change (Example 5). It counts as in vivo. To be noted: 100 mg/kg P.O. vs 5 mg/kg I.V., twice a week for 4 weeks. The method, then: Human liver cancer cells were suspended in a 1:1 mixture (100 μL) of EMEM serum free media: Matrigel at a density of 2×10^6 cells/animal and the suspension was transplanted subcutaneously into the flank of nude mice (5 weeks old, male). We have waited for the tumor formation for 4 weeks. When the tumor volume reached 100 mm^3, the body weight and the tumor size were measured and then the mice were randomly grouped. The mice were divided into 4 groups. Saline alone was administered intravenously to each group (Saline administered group (n=6, I.V.)). Cisplatin adjusted to pH 4 using NaCl aqueous solution, HCl aqueous solution, or NaOH aqueous solution was administered intravenously thereto (Cisplatin administered group (n=5, I.V.)). […] The mice were anesthetized immediately prior to administration, and the body weight was measured to observe the change in the body weight. The changes in the body weight and the tumor size for 4 weeks were measured in the same manner as in Example 1 above, and the results are shown in FIG. 6. In the same manner as in Example 2, the tumor was separated and the relative size of the tumor was measured, and the photographed tissue is shown in FIG. 7.

The nature of data set [1]: Comparative study of blood and histological toxicity (serum GOT/GPT activity, Sirius red staining of liver and kidney). The data set is classed as in vivo. Particulars: oral administration, end of Example 2 experiment; FIG. 3 and FIG. 4. How it is done:
Toxicity was analyzed based on activity assay of GOT and GPT. A specific experimental method is as follows: GOT and GPT activity in serum was measured using a reagent kit (Asan Pharmaceutical) prepared according to a method of Reitman-Frankel. At an end of the experiment, blood was collected from an abdominal vena cava of the mice to which the compound was administered, and serum was separated therefrom. When a substrate solution was added to the serum which in turn was heated for a certain period of time, oxalacetate and glutamic acid were generated from the substrate solution for GOT measurement (aspartate, a-ketoglutarate mixture) due to the action of serum GOT, while under GPT action, pyruvate and glutamic acid were generated from the substrate solution for GPT measurement (Alanine, a-ketoglutarate mixture). Then, […] was added thereto such that 2,4-dinitrophenylhydrazone of oxaloacetate or pyruvate was produced, and NaOH was added thereto to develop color, and then absorbance was measured (505 nm). The activity of GOT and GPT in serum was calculated from a standard calibration curve as prepared separately.
At the end of the experiment, the blood of nude mice participating in the experiment was perfused and livers and kidneys were obtained. The tissues were fixed in 4% paraformaldehyde. […]

Data set [2] deals with human liver cancer cell line HepG2. The data set is described as follows: Anticancer effect test in liver cancer animal model using human liver cancer cell line (Example 2). Particulars: for relative size of tumor isolated 21 days after administration: compound 100 mg/kg P.O., Cisplatin 5 mg/kg IV, twice a week for 3 weeks, FIG. 2. The data set is classed as in vivo, nude mouse. The method, then:
(§1) The human liver cancer cell line HepG2 was grown in Eagle's Minimum Essential Medium (EMEM) medium supplemented with 10% Fetal bovine serum (FBS) and 1% Antibiotic-Antimycotic. For liver cancer animal model production, stabilized cells were suspended in a 1:1 mixture (100 μL) of EMEM serum free media: Matrigel at a density of 5×10^6 cells/animal and then the suspension was transplanted subcutaneously to a flank of a nude mouse (5 weeks old, male). We have waited for the tumor formation for 3 weeks. When the tumor volume reached 200 mm^3, the body weight and the tumor size were measured and then the mice were randomly grouped. The mice were divided into 3 groups. Saline alone was administered intravenously to each group (Saline administered group (n=6, IV)). Cisplatin adjusted to pH 4 using NaCl aqueous solution, HCl aqueous solution, or NaOH aqueous solution was administered intravenously thereto (Cisplatin administered group (n=6, IV)). The compound according to the present disclosure (compound of Chemical Formula 1-1) dissolved in saline was forcibly administered orally thereto (administered group according to the present disclosure (n=6, P.O.)). The administration intervals and frequencies of administration to the groups were equal to each other. The administration was performed once a day and twice a week for 3 weeks. The dosage of Cisplatin (intravenous administration) was 5 mg/kg. The composition was orally administered at 100 mg/kg to the administered group according to the present disclosure.
The mice were anesthetized immediately prior to the administration, and then the body weight thereof was measured to observe the change in the body weight. The change in the tumor size over time was observed based on a following equation.
Average tumor volume calculation equation: V (mean tumor volume)=(A×B×B)/2
(In the above equation, A denotes a length of a long side and B denotes a length of a short side).
Further, on 21 days after the administration, a start time of tumor necrosis in the saline group was designated as an end point of the experiment. All nude mice participating in the experiment were sacrificed. Only the tumor was isolated from the flank thereof, and the relative size of the tumor was photographed. In FIG. 2, grayish-white dots mean that all tumors have disappeared and an individual has a tumor which may not be distinguished.

Data set [3] has the same test system. The data set is described as follows: Comparison of survival rate in the liver cancer animal model (Example 4). It counts as in vivo, nude mouse. To be noted: animal model test of Example 2; FIG. 5. How it is done:
as §1, with “The composition was orally administered at 100 mg/kg to the administered group according to the present disclosure.” left out

[4] abbreviates: 100 mg/kg P.O., once a day twice a week for 3 weeks, FIG. 1.

As for `NCC(N)C(=O)Nc1ccc(-c2nc3ccccc3s2)cc1` (centres unmarked) [Chemical Formula 1-1], the “toxicity based on the change in body weight, oral compared to intravenous administration” value in the data set with Human liver cancer cells (FIG. 6) is recorded as “the toxicity based on the change in body weight may be lowered”. In addition, the “anticancer effect (tumor size, isolated tumor at 28 days, survival), oral compared to intravenous administration” value in the data set on Human liver cancer cells (FIGS. 6, 7, 8) is given as “the anticancer effect may be significantly better”. In addition, in data set [1], the “toxicity in the liver and kidneys (serum GOT and GPT activity, tissue histology)” value was “significantly lowered”. In addition, in data set [2] (setting [4]), the “change in body weight for 3 weeks” value is on record as “no decrease in the body weight” and the “change in tumor size for 3 weeks” value is listed as “the tumor disappeared or the size thereof was significantly reduced”. In addition, the “relative size of tumor isolated 21 days after administration” value in data set [2] was “tumors significantly decrease or completely disappear”. The “survival over time after drug administration” value in data set [3] was “the survival was higher”.

For `N.N.[Cl][Pt][Cl]` [Cisplatin, cisplatin, reference compound], the “relative size of tumor isolated 21 days after administration” value in data set [2] is “tumor cells remain”.
